Experimental data published in US9624161B2 (priority 2009, dated 2017).
Entries after “also recorded” stand apart in the source; their conditions may differ.

How the values were obtained:
human males = assay: Multiple dose study in human males (100, 300, 600, 1000 mg; days 1-11); assay type: in vivo
[1] = Preliminary oral pharmacokinetics in monkeys; assay type: in vivo, monkey; conditions: preliminary pharmacokinetic studies
Protocol: Formulations using polyethylene glycol 300 (PEG300) generally produced higher exposures than microemulsions prepared in Tween 80 diluted in deionized water. […] Importantly, in dogs the exposure in the male 30 mg/kg PEG300 oral dose group exceeded the exposure necessary to produce the maximal effect on prostate reduction in the rat model of LH suppression.

[2] = system: treatment naïve prostate cancer patients; assay: Study 5: loading dose study (1000 mg BID, 1500 mg BID) in treatment naïve prostate cancer patients; assay type: in vivo; conditions: for Castration (%): patients receiving >14 days; for Subjects that reached castrate levels of serum total testosterone: subjects that had reached Day 28
Protocol: Another study (Study 5) to assess 1000 mg twice per day and 1500 mg twice daily loading doses of Compound IV for 28 days was conducted. Subjects that were castrate on Day 28 received either 1000 mg or 2000 mg Compound IV daily to maintain the castration.
Thirty (30) and 28 subjects were randomized to the 1500 mg BID and 1000 mg BID loading doses, respectively. Among the subjects that had reached Day 28, 90% (18/20) of the subjects in the 1500 mg BID dose group and 94% (17/18) of the subjects in the 1000 mg BID dose group had reached castrate levels of serum total testosterone. During this study, two (2) subjects in the 1500 mg BID dose group experienced a VTE, including one fatal pulmonary embolus (PE) and three (3) subjects in the 1000 mg BID dose group experienced a VTE. See FIG. 26 for an overview of all the clinical studies on Compound IV.

[3] = system: prostate epithelial cancer cells; assay: Proliferation of prostate epithelial cancer cells in vitro; assay type: cell-based
rat ER-α = rat ER-α (Rattus norvegicus, UniProt P06211)
rat ER-α, sequence (P06211 whole entry): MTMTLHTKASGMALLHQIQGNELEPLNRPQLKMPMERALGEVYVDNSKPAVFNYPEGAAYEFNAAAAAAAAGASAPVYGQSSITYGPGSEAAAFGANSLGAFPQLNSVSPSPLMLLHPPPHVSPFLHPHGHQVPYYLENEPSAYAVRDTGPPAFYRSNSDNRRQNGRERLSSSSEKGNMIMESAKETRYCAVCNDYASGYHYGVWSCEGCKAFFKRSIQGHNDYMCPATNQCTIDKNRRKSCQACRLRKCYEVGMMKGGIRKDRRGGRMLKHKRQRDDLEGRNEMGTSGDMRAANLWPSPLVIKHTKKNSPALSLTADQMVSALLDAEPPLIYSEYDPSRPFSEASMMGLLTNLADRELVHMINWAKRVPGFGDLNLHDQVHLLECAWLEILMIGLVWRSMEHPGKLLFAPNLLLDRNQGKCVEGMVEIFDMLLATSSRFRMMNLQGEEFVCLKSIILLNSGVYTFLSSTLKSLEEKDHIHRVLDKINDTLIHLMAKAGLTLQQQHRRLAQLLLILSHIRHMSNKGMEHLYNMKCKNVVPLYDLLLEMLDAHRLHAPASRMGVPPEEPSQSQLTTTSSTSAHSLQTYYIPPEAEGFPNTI

For `O=C(c1ccc(O)c(F)c1)N(c1ccc(O)cc1)c1ccc(F)cc1` [Compound IV, 3-fluoro-N-(4-fluorophenyl)-4-hydroxy-N-(4-hydroxyphenyl)benzamide], the “Change of PSA level” value (human males; 10 mg) was “No changes noted”, the “Change of PSA level” value (human males; 30 mg) was “No changes noted” and the “Decrease of PSA level” value (human males; 100 mg) was 9.2%. The “Decrease of free testosterone level” value (human males; 100 mg) was 17.0%, the Oral bioavailability [1] was “approximates or exceeds that in dogs” and the “Subjects that experienced a VTE” value ([2]; 1000 mg BID dose group) was 3 subjects. The “Castration (%)” value ([2]; 1000 mg BID, D28) was 84.2%, the “Castration (%)” value ([2]; 1000 mg BID, Ever) was 90% and the “Subjects that reached castrate levels of serum total testosterone” value ([2]; 1000 mg BID) was 94%. For the same molecule, the “Subjects that experienced a VTE” value ([2]; 1500 mg BID dose group, including one fatal pulmonary embolus) was 2 subjects, the “Castration (%)” value ([2]; 1500 mg BID, D28) was 85.7% and the “Castration (%)” value ([2]; 1500 mg BID, Ever) was 95.2%. The “Subjects that reached castrate levels of serum total testosterone” value ([2]; 1500 mg BID) was 90%, the “Proliferation of prostate epithelial cancer cells” value [3] was “does not increase proliferation; also recorded: did not increase proliferation” and the “Antagonist effects on estradiol-stimulated transcriptional activation” value (rat ER-α; estradiol 1 nM, Compound IV up to 10 μM) was “no antagonist effects were observed”. The “Relative selectivity in transactivation potency for ERα over ERβ” value (rat ER-α; normalized to estradiol values) was 16 fold.
